Molecules are shown by their SMILES. Bounds are passed on as bounds.

One test deals with HEK-293 cells. Kind of test: HEK-293 cytotoxicity detection (CellTiter-Glo). Type of test: cell-based. The conditions noted are these: Homo sapiens, 72 h, 72 h incubation, CellTiter-Glo luminescence, read-out: HEK293. A digest of the protocol: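 HEK-293 cells exposed 72 h to 8 compounds doses (4-fold dilutions, top stock 5 mM at 500×) in 0.2% DMSO. Viability by CellTiter-Glo luminescence; inhibition normalised to DMSO high control and low control, IC50 from four-parameter curve fit.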

The next test addresses BTK (Homo sapiens, UniProt Q06187). Description: BTK cell degradation in TMD-8 cells, HTRF assay. Set-up: endogenous in cells; host or cells: TMD-8 cells. Type of test: cell-based. The conditions noted are these: 6 h treatment, IC50 (DC50) of BTK degradation. The essentials: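 TMD-8 cells treated 6 h with 8-dose series (6-fold dilutions, 0.2% DMSO final), then lysed and BTK quantified by HTRF (337/665/620 nm) after overnight antibody incubation at room temperature. Degradation normalized to DMSO high and low controls; DC50 and Dmax from four-parameter fit.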
A general note: In TR-FRET formats the signal depends on donor and acceptor labels being close together.

Chain of BTK (Q06187 whole entry): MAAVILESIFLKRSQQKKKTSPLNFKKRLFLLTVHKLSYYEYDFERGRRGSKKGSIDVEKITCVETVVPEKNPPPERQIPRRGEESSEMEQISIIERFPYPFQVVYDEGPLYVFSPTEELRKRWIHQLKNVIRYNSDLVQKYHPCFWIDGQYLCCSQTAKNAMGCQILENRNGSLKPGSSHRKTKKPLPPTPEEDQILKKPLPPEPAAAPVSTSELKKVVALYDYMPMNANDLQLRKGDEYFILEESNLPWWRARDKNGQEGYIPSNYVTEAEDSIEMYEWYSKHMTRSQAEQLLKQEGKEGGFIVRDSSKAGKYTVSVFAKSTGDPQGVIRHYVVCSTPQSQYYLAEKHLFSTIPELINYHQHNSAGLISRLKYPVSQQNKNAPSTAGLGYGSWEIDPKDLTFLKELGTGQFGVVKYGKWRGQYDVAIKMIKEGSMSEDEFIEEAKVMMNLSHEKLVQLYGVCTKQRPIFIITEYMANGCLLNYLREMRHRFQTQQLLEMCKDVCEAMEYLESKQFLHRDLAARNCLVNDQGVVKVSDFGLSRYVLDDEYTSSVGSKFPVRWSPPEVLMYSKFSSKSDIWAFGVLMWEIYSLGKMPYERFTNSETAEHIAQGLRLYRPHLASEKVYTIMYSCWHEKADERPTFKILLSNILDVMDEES

Take `COc1ccc(C(F)(F)F)cc1C(=O)NCc1ccc(-c2nn3c(c2C(N)=O)Nc2ccc(N4CCN(CC5CCN(c6ccc(N7CCC(=O)NC7=O)cc6)CC5)CC4)cc2CC3)cc1` [Example C21, 7-(4-((1-(4-(2,4-dioxotetrahydropyrimidin-1(2H)-yl)phenyl)piperidin-4-yl)methyl)piperazin-1-yl)-2-(4-((2-methoxy-5-(trifluoromethyl)benzamido)methyl)phenyl)-9,10-dihydro-4H-benzo[d]pyrazolo[1,5-a][1,3]diazepine-3-carboxamide]: the IC50 in the test with HEK-293 cells is more than 10000 nM. Also, on BTK, the half-maximal degradation concentration (DC50) (commonly the concentration at which degradation of the target reaches its halfway point) is 0.703 nM.
Taken in the same sequence, the figures for `COc1cccc(OC)c1C(=O)NCc1ccc(-c2nn3c(c2C(N)=O)Nc2ccc(N4CCN(CC5CCN(c6ccc(N7CCC(=O)NC7=O)cc6)CC5)CC4)cc2CC3)cc1` [Example C22, 2-(4-((2,6-dimethoxybenzamido)methyl)phenyl)-7-(4-((1-(4-(2,4-dioxotetrahydropyrimidin-1(2H)-yl)phenyl)piperidin-4-yl)methyl)piperazin-1-yl)-9,10-dihydro-4H-benzo[d]pyrazolo[1,5-a][1,3]diazepine-3-carboxamide] were more than 10000 nM and 2.12 nM.
Taken in the same sequence, the figures for `COc1ccc(C(=O)NCc2ccc(-c3nn4c(c3C(N)=O)Nc3ccc(N5CCN(CC6CCN(c7ccc(N8CCC(=O)NC8=O)cc7)CC6)CC5)cc3CC4)cc2)c(OC)c1` [Example C23, 2-(4-((2,4-dimethoxybenzamido)methyl)phenyl)-7-(4-((1-(4-(2,4-dioxotetrahydropyrimidin-1(2H)-yl)phenyl)piperidin-4-yl)methyl)piperazin-1-yl)-9,10-dihydro-4H-benzo[d]pyrazolo[1,5-a][1,3]diazepine-3-carboxamide] were more than 10000 nM and 2 nM.
Taken in the same sequence, the figures for `COc1ccc(C(F)(F)F)cc1C(=O)NCc1ccc(-c2nn3c(c2C(N)=O)Nc2ccc(N4CCN(CC5CCN(c6ccc(N7CCC(=O)NC7=O)cc6)CC5)CC4)cc2CC3)c(F)c1` [Example C24, 7-(4-((1-(4-(2,4-dioxotetrahydropyrimidin-1(2H)-yl)phenyl)piperidin-4-yl)methyl)piperazin-1-yl)-2-(2-fluoro-4-((2-methoxy-5-(trifluoromethyl)benzamido)methyl)phenyl)-9,10-dihydro-4H-benzo[d]pyrazolo[1,5-a][1,3]diazepine-3-carboxamide] were more than 10000 nM and 2.11 nM.
Consider `COc1ccc(F)c(F)c1C(=O)NCc1ccc(-c2nn3c(c2C(N)=O)Nc2ccc(N4CCN(CC5CCN(c6ccc(N7CCC(=O)NC7=O)cc6)CC5)CC4)cc2CC3)cc1` [Example C25, 2-(4-((2,3-difluoro-6-methoxybenzamido)methyl)phenyl)-7-(4-((1-(4-(2,4-dioxotetrahydropyrimidin-1(2H)-yl)phenyl)piperidin-4-yl)methyl)piperazin-1-yl)-9,10-dihydro-4H-benzo[d]pyrazolo[1,5-a] [1,3]diazepine-3-carboxamide], for which, in the test on HEK-293 cells, the IC50 is more than 10000 nM. Moreover, on BTK, it took 0.611 nM to reach half-maximal degradation (DC50).
Regarding `COc1ccc(C(F)(F)F)cc1C(=O)NCc1ccc(-c2nn3c(c2C(N)=O)Nc2ccc(N4CCN(CC5CCN(c6ccc(N7CCC(=O)NC7=O)cc6)CC5)CC4)cc2CC3)cc1F` [Example C26, 7-(4-((1-(4-(2,4-dioxotetrahydropyrimidin-1(2H)-yl)phenyl)piperidin-4-yl)methyl)piperazin-1-yl)-2-(3-fluoro-4-((2-methoxy-5-(trifluoromethyl)benzamido)methyl)phenyl)-9,10-dihydro-4H-benzo[d]pyrazolo[1,5-a][1,3]diazepine-3-carboxamide], in the test on HEK-293 cells, the IC50 amounted to 108 nM. For the same compound, the DC50 on BTK stood at 1.79 nM.
Taken in the same sequence, the figures for `COc1ccc(C(F)(F)F)cc1C(=O)NCc1ccc(-c2nn3c(c2C(N)=O)Nc2ccc(N4CCN(CC5CCN(c6ccc(N7CCC(=O)NC7=O)cc6)CC5)CC4)cc2CC3)c(OC)c1` [Example C27, 7-(4-((1-(4-(2,4-dioxotetrahydropyrimidin-1(2H)-yl)phenyl)piperidin-4-yl)methyl)piperazin-1-yl)-2-(2-methoxy-4-((2-methoxy-5-(trifluoromethyl)benzamido)methyl)phenyl)-9,10-dihydro-4H-benzo[d]pyrazolo[1,5-a][1,3]diazepine-3-carboxamide] were 209 nM and 1.76 nM.
As to `COc1ccc(C(F)(F)F)cc1C(=O)NCc1ccc(-c2nn3c(c2C(N)=O)Nc2ccc(N4CCN(CC5CCN(c6ccc(N7CCC(=O)NC7=O)cc6)CC5)CC4)cc2CC3)c(F)c1F` [Example C28, 2-(2,3-difluoro-4-((2-methoxy-5-(trifluoromethyl)benzamido)methyl)phenyl)-7-(4-((1-(4-(2,4-dioxotetrahydropyrimidin-1(2H)-yl)phenyl)piperidin-4-yl)methyl)piperazin-1-yl)-9,10-dihydro-4H-benzo[d]pyrazolo[1,5-a][1,3]diazepine-3-carboxamide], the IC50 with HEK-293 cells is more than 10000 nM. Further, half-maximal degradation at BTK (DC50) was put at 1.15 nM.
Taken in the same sequence, the figures for `COc1ccc(C2CC2)cc1C(=O)NCc1ccc(-c2nn3c(c2C(N)=O)Nc2ccc(N4CCN(CC5CCN(c6ccc(N7CCC(=O)NC7=O)cc6)CC5)CC4)cc2CC3)cc1` [Example C29, 2-(4-((5-cyclopropyl-2-methoxybenzamido)methyl)phenyl)-7-(4-((1-(4-(2,4-dioxotetrahydropyrimidin-1(2H)-yl)phenyl)piperidin-4-yl)methyl)piperazin-1-yl)-9,10-dihydro-4H-benzo[d]pyrazolo[1,5-a][1,3]diazepine-3-carboxamide] were more than 10000 nM and 1.56 nM.
Taken in the same sequence, the figures for `COc1cc(F)c(F)cc1C(=O)NCc1ccc(-c2nn3c(c2C(N)=O)Nc2ccc(N4CCN(CC5CCN(c6ccc(N7CCC(=O)NC7=O)cc6)CC5)CC4)cc2CC3)cc1` [Example C30, 2-(4-((4,5-difluoro-2-methoxybenzamido)methyl)phenyl)-7-(4-((1-(4-(2,4-dioxotetrahydropyrimidin-1(2H)-yl)phenyl)piperidin-4-yl)methyl)piperazin-1-yl)-9,10-dihydro-4H-benzo[d]pyrazolo[1,5-a][1,3]diazepine-3-carboxamide] were more than 10000 nM and 0.786 nM.
Taken in the same sequence, the figures for `COc1cc(C)ccc1C(=O)NCc1ccc(-c2nn3c(c2C(N)=O)Nc2ccc(N4CCN(CC5CCN(c6ccc(N7CCC(=O)NC7=O)cc6)CC5)CC4)cc2CC3)cc1C` [Example C31, 7-(4-((1-(4-(2,4-dioxotetrahydropyrimidin-1(2H)-yl)phenyl)piperidin-4-yl)methyl)piperazin-1-yl)-2-(4-((2-methoxy-4-methylbenzamido)methyl)-3-methylphenyl)-9,10-dihydro-4H-benzo[d]pyrazolo[1,5-a][1,3]diazepine-3-carboxamide] were more than 10000 nM and 7.02 nM.
Take `COc1ccccc1C(=O)NCc1ccc(-c2nn3c(c2C(N)=O)Nc2ccc(N4CCN(CC5CCN(c6ccc(N7CCC(=O)NC7=O)cc6)CC5)CC4)cc2CC3)cc1C` [Example C32, 7-(4-((1-(4-(2,4-dioxotetrahydropyrimidin-1(2H)-yl)phenyl)piperidin-4-yl)methyl)piperazin-1-yl)-2-(4-((2-methoxybenzamido)methyl)-3-methylphenyl)-9,10-dihydro-4H-benzo[d]pyrazolo[1,5-a][1,3]diazepine-3-carboxamide]: the IC50 in the test with HEK-293 cells was more than 10000 nM. Also, on BTK, half-maximal degradation (DC50) was put at 3.1 nM.
Consider `COc1cc(F)c(F)cc1C(=O)NCc1ccc(-c2nn3c(c2C(N)=O)Nc2ccc(N4CCN(CC5CCN(c6ccc(N7CCC(=O)NC7=O)cc6)CC5)CC4)cc2CC3)cc1C` [Example C33, 2-(4-((4,5-difluoro-2-methoxybenzamido)methyl)-3-methylphenyl)-7-(4-((1-(4-(2,4-dioxotetrahydropyrimidin-1(2H)-yl)phenyl)piperidin-4-yl)methyl)piperazin-1-yl)-9,10-dihydro-4H-benzo[d]pyrazolo[1,5-a][1,3]diazepine-3-carboxamide], for which, in the test with HEK-293 cells, the IC50 is more than 10000 nM. The DC50 at BTK was 9.19 nM.
With `COc1ncccc1C(=O)NCc1ccc(-c2nn3c(c2C(N)=O)Nc2ccc(N4CCN(CC5CCN(c6ccc(N7CCC(=O)NC7=O)cc6)CC5)CC4)cc2CC3)cc1C` [Example C34, 7-(4-((1-(4-(2,4-dioxotetrahydropyrimidin-1(2H)-yl)phenyl)piperidin-4-yl)methyl)piperazin-1-yl)-2-(4-((2-methoxynicotinamido)methyl)-3-methylphenyl)-9,10-dihydro-4H-benzo[d]pyrazolo[1,5-a][1,3]diazepine-3-carboxamide], in the test with HEK-293 cells, the IC50 was more than 10000 nM. In addition, at BTK, the DC50 came to 3.91 nM.
On to `COc1ccncc1C(=O)NCc1ccc(-c2nn3c(c2C(N)=O)Nc2ccc(N4CCN(CC5CCN(c6ccc(N7CCC(=O)NC7=O)cc6)CC5)CC4)cc2CC3)cc1C` [Example C35, 7-(4-((1-(4-(2,4-dioxotetrahydropyrimidin-1(2H)-yl)phenyl)piperidin-4-yl)methyl)piperazin-1-yl)-2-(4-((4-methoxynicotinamido)methyl)-3-methylphenyl)-9,10-dihydro-4H-benzo[d]pyrazolo[1,5-a][1,3]diazepine-3-carboxamide], for which the IC50 in the test on HEK-293 cells was more than 10000 nM. Moreover, the DC50 on BTK is 1.1 nM.
Regarding `COc1cccnc1C(=O)NCc1ccc(-c2nn3c(c2C(N)=O)Nc2ccc(N4CCN(CC5CCN(c6ccc(N7CCC(=O)NC7=O)cc6)CC5)CC4)cc2CC3)cc1C` [Example C36], in the test with HEK-293 cells, the IC50 is more than 10000 nM. This compound had a DC50 at BTK of 6.66 nM.
